Experimental data reported in US10800791B2, “Triazole ACC inhibitors and uses thereof” (Gilead Apollo, LLC, priority 2015, dated 2020).
In brackets after ≈: the same amount, converted by molar mass. Read-outs that look alike come from different tables or passages of the source.

What was measured:
C. albicans = experiment: Antifungal Activity Assay (broth microtiter MIC), C. albicans; format: cell-based, Candida albicans; conditions: Candida albicans, ATCC90028, 48 h
Method in brief: (§1)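 CLSI M27-A3 microdilution; RPMI 1640+MOPS; 2.5×10^3 CFU/mL final inoculum; cultures from Sabouraud dextrose agar, 35° C overnight; compound working solution 128 μg/mL from 1 mg/mL DMSO stock; visual MIC at 48 h vs growth control.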

C. krusei = experiment: Antifungal Activity Assay (broth microtiter MIC), C. krusei; format: cell-based, Candida krusei; conditions: Pichia kudriavzevii, ATCC6258, 48 h
Method in brief: as §1

C. parapsilosis = experiment: Antifungal Activity Assay (broth microtiter MIC), C. parapsilosis; format: cell-based, Candida parapsilosis; conditions: Lodderomyces parapsilosis, ATCC22019, 48 h
Method in brief: as §1

Botrtyis cinerea (Bc) = experiment: Growth inhibition assay of fungal pathogens, Bc; format: cell-based; conditions: 48 h
Method in brief: (§2)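 Inhibition percentages reflect 48 h OD600 and visual scores relative to a 2% DMSO control. Test concentrations were 50, 10, 2 ppm or 2, 0.4, 0.08 ppm final, applied to spores in 17% V8 medium.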

[1] = system: Collectotrichum graminicola (Cg); experiment: Growth inhibition assay of fungal pathogens, Cg; format: cell-based; conditions: 48 h
Method in brief: as §2

Diplodia maydis (Dm) = experiment: Growth inhibition assay of fungal pathogens, Dm; format: cell-based; conditions: Stenocarpella maydis, 48 h
Method in brief: as §2

[2] = system: Fusarium moniliforme (Fm); experiment: Growth inhibition assay of fungal pathogens, Fm; format: cell-based; conditions: for IC90: Fusarium verticillioides, 48 h, read-out: Concentration at 90% Inhibition Fm
Method in brief: as §2

[3] = system: Fusarium virguliforme (Fv); experiment: Growth inhibition assay of fungal pathogens, Fv; format: cell-based; conditions: 48 h
Method in brief: as §2

[4] = system: Phytophthora capsici (Pc); experiment: Growth inhibition assay of fungal pathogens, Pc; format: cell-based; conditions: 48 h
Method in brief: as §2

Septoria tritici (St) = experiment: Growth inhibition assay of fungal pathogens, St; format: cell-based; conditions: Zymoseptoria tritici, 48 h
Method in brief: as §2

fungal (fACC2) = fungal (fACC2) (UniProt Q00955); conditions: read-out: fACC2 (in vitro ACC2 Inhibition Assay, IC50), ADP-Glo, 5 nM ACC2, 20 μM ATP, 20 μM acetyl-CoA
[5] = Fusarium moniliforme, growth inhibition at 48 hours vs 2% DMSO control

Sequence of fungal (fACC2) (Q00955 whole entry): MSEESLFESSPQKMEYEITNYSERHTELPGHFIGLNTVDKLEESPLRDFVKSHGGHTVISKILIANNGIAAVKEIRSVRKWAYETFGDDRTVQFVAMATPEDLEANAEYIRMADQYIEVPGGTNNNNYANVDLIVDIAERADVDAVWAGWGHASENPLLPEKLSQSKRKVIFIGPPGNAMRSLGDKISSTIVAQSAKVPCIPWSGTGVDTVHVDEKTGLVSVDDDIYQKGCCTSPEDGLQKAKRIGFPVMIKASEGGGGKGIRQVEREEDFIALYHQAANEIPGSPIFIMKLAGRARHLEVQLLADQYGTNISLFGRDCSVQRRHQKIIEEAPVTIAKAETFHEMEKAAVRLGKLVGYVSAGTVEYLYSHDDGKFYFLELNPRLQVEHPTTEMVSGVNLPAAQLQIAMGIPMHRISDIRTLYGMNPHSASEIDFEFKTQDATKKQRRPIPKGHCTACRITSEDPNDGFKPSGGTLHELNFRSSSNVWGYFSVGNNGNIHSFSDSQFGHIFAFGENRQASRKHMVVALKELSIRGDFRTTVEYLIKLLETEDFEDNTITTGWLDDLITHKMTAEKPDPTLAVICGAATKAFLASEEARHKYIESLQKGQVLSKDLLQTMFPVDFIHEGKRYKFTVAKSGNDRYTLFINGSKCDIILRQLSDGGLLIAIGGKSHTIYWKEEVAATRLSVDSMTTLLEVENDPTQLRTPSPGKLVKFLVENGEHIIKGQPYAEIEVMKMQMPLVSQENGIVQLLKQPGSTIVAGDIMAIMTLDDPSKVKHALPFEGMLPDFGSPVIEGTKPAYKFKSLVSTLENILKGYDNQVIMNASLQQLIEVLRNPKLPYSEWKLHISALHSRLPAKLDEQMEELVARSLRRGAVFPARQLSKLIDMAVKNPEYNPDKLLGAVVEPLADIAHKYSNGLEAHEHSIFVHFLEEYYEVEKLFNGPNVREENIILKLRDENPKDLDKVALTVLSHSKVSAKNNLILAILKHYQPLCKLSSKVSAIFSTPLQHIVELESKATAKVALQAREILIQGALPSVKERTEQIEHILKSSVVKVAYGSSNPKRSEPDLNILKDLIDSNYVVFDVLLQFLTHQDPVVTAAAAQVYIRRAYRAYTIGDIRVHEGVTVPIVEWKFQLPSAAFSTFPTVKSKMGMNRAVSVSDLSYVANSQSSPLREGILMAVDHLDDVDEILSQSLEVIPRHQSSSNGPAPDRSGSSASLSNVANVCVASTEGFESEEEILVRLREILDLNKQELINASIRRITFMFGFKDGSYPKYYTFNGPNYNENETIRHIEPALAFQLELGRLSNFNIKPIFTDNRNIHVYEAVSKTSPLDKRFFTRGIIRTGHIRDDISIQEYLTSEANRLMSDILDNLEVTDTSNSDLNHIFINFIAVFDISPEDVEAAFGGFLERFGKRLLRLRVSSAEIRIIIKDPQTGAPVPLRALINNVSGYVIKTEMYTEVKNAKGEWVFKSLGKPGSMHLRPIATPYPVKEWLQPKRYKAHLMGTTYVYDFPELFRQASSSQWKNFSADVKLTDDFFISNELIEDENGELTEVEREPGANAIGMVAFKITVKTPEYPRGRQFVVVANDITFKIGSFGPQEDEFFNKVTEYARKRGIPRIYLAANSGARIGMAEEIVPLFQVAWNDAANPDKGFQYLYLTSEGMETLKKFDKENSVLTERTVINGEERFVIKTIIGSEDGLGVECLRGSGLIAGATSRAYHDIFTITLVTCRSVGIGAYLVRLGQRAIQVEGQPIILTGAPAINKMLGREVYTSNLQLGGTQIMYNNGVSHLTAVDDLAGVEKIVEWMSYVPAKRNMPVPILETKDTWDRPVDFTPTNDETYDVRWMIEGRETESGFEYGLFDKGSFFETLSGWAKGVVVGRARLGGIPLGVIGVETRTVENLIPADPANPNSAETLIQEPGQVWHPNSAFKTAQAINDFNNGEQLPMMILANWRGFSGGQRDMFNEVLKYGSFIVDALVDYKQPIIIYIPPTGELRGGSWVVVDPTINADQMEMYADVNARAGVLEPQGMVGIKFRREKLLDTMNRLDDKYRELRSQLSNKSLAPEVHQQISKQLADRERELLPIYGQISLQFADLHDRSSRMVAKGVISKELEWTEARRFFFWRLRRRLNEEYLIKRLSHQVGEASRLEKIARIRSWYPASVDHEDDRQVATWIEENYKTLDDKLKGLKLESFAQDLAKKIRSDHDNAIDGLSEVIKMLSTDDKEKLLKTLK

## COCCCO[C@@H](Cn1c(=O)n(C(C)(C)C(=O)N2CCCC2)c(=O)c2c(C)c(-n3nccn3)sc21)c1cc(F)ccc1OC [Compound I-68, (R)-1-(2-(5-fluoro-2-methoxyphenyl)-2-(3-methoxy-propoxy)ethyl)-5-methyl-3-(2-methyl-1-oxo-1-(pyrrolidin-1-yl)propan-2-yl)-6-(2H-1,2,3-triazol-2-yl)thieno[2,3-d]pyrimidine-2,4(1H,3H)-dione]
C. albicans; Table 3b (additional results), ATCC 90028, 3 replicates, MIC recorded at 48 h, read-out: MIC, C. albicans ATCC 90028
  MIC: 2.01 to 4 µg/mL (≈ 3.2 to 6.36 µM)
C. krusei; Table 3b (additional results), ATCC 6258, 3 replicates, MIC recorded at 48 h, read-out: MIC, C. krusei ATCC 6258
  MIC: 2.01 to 4 µg/mL (≈ 3.2 to 6.36 µM)
C. parapsilosis; Table 3b (additional results), ATCC 22019, 3 replicates, MIC recorded at 48 h, read-out: MIC, C. parapsilosis ATCC 22019
  MIC: 1.01 to 2 µg/mL (≈ 1.61 to 3.18 µM)
Botrtyis cinerea (Bc); Botrtyis cinerea, growth inhibition at 48 hours vs 2% DMSO control, read-out: Concentration at 90% Inhibition Bc
  IC90: 2 µg/mL (≈ 3.18 µM)
Botrtyis cinerea (Bc); Botrtyis cinerea, growth inhibition vs 2% DMSO control at 48 hours, read-out: Concentration at 90% Inhibition Bc
  IC90: 2 µg/mL (≈ 3.18 µM)
[1]; Collectotrichum graminicola, growth inhibition at 48 hours vs 2% DMSO control, read-out: Concentration at 90% Inhibition Cg
  IC90: 2 µg/mL (≈ 3.18 µM)
[1]; Collectotrichum graminicola, growth inhibition vs 2% DMSO control at 48 hours, read-out: Concentration at 90% Inhibition Cg
  IC90: 2 µg/mL (≈ 3.18 µM)
Diplodia maydis (Dm); Diplodia maydis, growth inhibition at 48 hours vs 2% DMSO control, read-out: Concentration at 90% Inhibition Dm
  IC90: 2 µg/mL (≈ 3.18 µM)
Diplodia maydis (Dm); Diplodia maydis, growth inhibition vs 2% DMSO control at 48 hours, read-out: Concentration at 90% Inhibition Dm
  IC90: 2 µg/mL (≈ 3.18 µM)
[2]; [5]
  IC90: 0.08 µg/mL (≈ 0.127 µM)
[2]; Fusarium moniliforme, growth inhibition vs 2% DMSO control at 48 hours
  IC90: 0.08 µg/mL (≈ 0.127 µM)
[3]; growth inhibition at 48 hours vs 2% DMSO control, read-out: Concentration at 90% Inhibition Fv
  IC90: 0.4 µg/mL (≈ 0.636 µM)
[3]; growth inhibition vs 2% DMSO control at 48 hours, read-out: Concentration at 90% Inhibition Fv
  IC90: 0.4 µg/mL (≈ 0.636 µM)
[4]; growth inhibition at 48 hours vs 2% DMSO control, read-out: Concentration at 90% Inhibition Pc
  IC90: > 50 µg/mL
[4]; growth inhibition vs 2% DMSO control at 48 hours, read-out: Concentration at 90% Inhibition Pc
  IC90: > 50 µg/mL
Septoria tritici (St); Septoria tritici, growth inhibition at 48 hours vs 2% DMSO control, read-out: Concentration at 90% Inhibition St
  IC90: > 50 µg/mL
Septoria tritici (St); Septoria tritici, growth inhibition vs 2% DMSO control at 48 hours, read-out: Concentration at 90% Inhibition St
  IC90: > 50 µg/mL
Fungal (fACC2); Table 2a
  IC50: 1 to 5 nM
Fungal (fACC2); Table 2b, additional results
  IC50: 1 to 5 nM

## COCCCO[C@@H](Cn1c(=O)n(C(C)(C)C(=O)NC(C)C)c(=O)c2c(C)c(-n3nccn3)sc21)c1cc(F)ccc1OC [Compound I-69, (R)-2-(1-(2-(5-fluoro-2-methoxyphenyl)-2-(3-methoxy-propoxy)ethyl)-5-methyl-2,4-dioxo-6-(2H-1,2,3-triazol-2-yl)-1,4-dihydrothieno[2,3-d]pyrimidin-3(2H)-yl)-N-isopropyl-2-methylpropanamide]
C. albicans; read-out: MIC, C. albicans ATCC 90028, Table 3b (additional results), 3 replicates, MIC recorded at 48 h
  MIC: 1.01 to 2 µg/mL (≈ 1.64 to 3.24 µM)
C. krusei; read-out: MIC, C. krusei ATCC 6258, Table 3b (additional results), 3 replicates, MIC recorded at 48 h
  MIC: 0.25 to 1 µg/mL (≈ 0.405 to 1.62 µM)
C. parapsilosis; read-out: MIC, C. parapsilosis ATCC 22019, Table 3b (additional results), 3 replicates, MIC recorded at 48 h
  MIC: 0.25 to 1 µg/mL (≈ 0.405 to 1.62 µM)
Botrtyis cinerea (Bc); read-out: Concentration at 90% Inhibition Bc, Botrtyis cinerea, growth inhibition at 48 hours vs 2% DMSO control
  IC90: 0.4 µg/mL (≈ 0.649 µM)
Botrtyis cinerea (Bc); read-out: Concentration at 90% Inhibition Bc, Botrtyis cinerea, growth inhibition vs 2% DMSO control at 48 hours
  IC90: 0.4 µg/mL (≈ 0.649 µM)
[1]; read-out: Concentration at 90% Inhibition Cg, Collectotrichum graminicola, growth inhibition at 48 hours vs 2% DMSO control
  IC90: 0.4 µg/mL (≈ 0.649 µM)
[1]; read-out: Concentration at 90% Inhibition Cg, Collectotrichum graminicola, growth inhibition vs 2% DMSO control at 48 hours
  IC90: 0.4 µg/mL (≈ 0.649 µM)
Diplodia maydis (Dm); read-out: Concentration at 90% Inhibition Dm, Diplodia maydis, growth inhibition at 48 hours vs 2% DMSO control
  IC90: 0.08 µg/mL (≈ 0.13 µM)
Diplodia maydis (Dm); read-out: Concentration at 90% Inhibition Dm, Diplodia maydis, growth inhibition vs 2% DMSO control at 48 hours
  IC90: 0.08 µg/mL (≈ 0.13 µM)
[2]; [5]
  Concentration at 90% Inhibition Fm: AA (compound concentration of 0.08 ppm at 90% inhibition of fungal pathogens)
[2]
  IC90: 0.08 µg/mL (≈ 0.13 µM)
[3]; read-out: Concentration at 90% Inhibition Fv, Fusarium virguliforme, growth inhibition at 48 hours vs 2% DMSO control
  IC90: 0.08 µg/mL (≈ 0.13 µM)
[3]; read-out: Concentration at 90% Inhibition Fv, Fusarium virguliforme, growth inhibition vs 2% DMSO control at 48 hours
  IC90: 0.08 µg/mL (≈ 0.13 µM)
[4]; read-out: Concentration at 90% Inhibition Pc, Phytophthora capsici, growth inhibition at 48 hours vs 2% DMSO control
  IC90: > 50 µg/mL
[4]; read-out: Concentration at 90% Inhibition Pc, Phytophthora capsici, growth inhibition vs 2% DMSO control at 48 hours
  IC90: > 50 µg/mL
Septoria tritici (St); read-out: Concentration at 90% Inhibition St, Septoria tritici, growth inhibition at 48 hours vs 2% DMSO control
  IC90: 10 µg/mL (≈ 16.2 µM)
Septoria tritici (St); read-out: Concentration at 90% Inhibition St, Septoria tritici, growth inhibition vs 2% DMSO control at 48 hours
  IC90: > 50 µg/mL
Fungal (fACC2); Table 2a
  IC50: 0.4 to 1 nM
Fungal (fACC2); Table 2b, additional results
  IC50: 0.3 to 1 nM
